Assay results as given in patent US20130303487A1, “Compositions Comprising Zoledronic Acid or Related Compounds for Relieving Inflammatory Pain and Related Conditions” (priority 2012, published 2013).
Where two headings read alike, the source gives them in different places.

Columns and labels:
[1] = system: inflammatory pain (mechanical hyperalgesia); format: in vivo, Sprague-Dawley rats
Procedure: The effect of orally administered zoledronic acid on inflammatory pain was examined using the rat complete Freund's adjuvant (CFA) model. Inflammatory pain was induced by injection of 100% CFA in a 75 μL volume into the left hind paws of Sprague-Dawley rats on day 0, followed by assessments on days 1-3. Animals were orally administered vehicle (control), zoledronic acid 18 mg/m^2 (or 3 mg/kg), zoledronic acid 120 mg/m^2 (or 20 mg/kg), or zoledronic acid 900 mg/m^2 (or 150 mg/kg) daily on days 1-3. Drug was dissolved in distilled water and prepared fresh daily. Animals were fasted prior to dosing. Under current FDA guidelines for extrapolating starting dosages from animals to humans, dosages expressed in mg/m^2 are considered equivalent between mammalian species. Thus, for example, 18 mg/m^2 in a rat is considered equivalent to 18 mg/m^2 in a human being, while 3 mg/kg in a rat may not be equivalent to 3 mg/kg in a human being.
Values for inflammatory pain (mechanical hyperalgesia) in the vehicle and drug-treated animals were obtained on day 0 prior to CFA injection, and at baseline and post-treatment on days 1-3. Pain was assessed using a digital Randall-Selitto device (dRS; IITC Life Sciences, Woodland Hills, Calif.). Animals were placed in a restraint sling that suspended the animal, leaving the hind limbs available for testing. Paw compression threshold was measured by applying increasing pressure to the plantar surface of the hind paw with a dome-shaped tip placed between the 3rd and 4th metatarsus. Pressure was applied gradually over approximately 10 seconds. Measurements were taken from the first observed nocifensive behavior of vocalization, struggle or withdrawal. A cut-off value of 300 g was used to prevent injury to the animal.
Reversal of inflammatory pain was calculated according to the formula:
% reversal=(Post-treatment−Post-CFA baseline)/(Pre-CFA baseline−Post-CFA baseline)×100.
The experiment was carried out using 9-10 animals per group.

[2] = system: complex regional pain syndrome (CRPS); test: rat tibia fracture model of complex regional pain syndrome (CRPS): von Frey, weight bearing, edema, warmth; format: in vivo; conditions: oral 18 mg/m^2/day (3 mg/kg/day) for 28 days
Procedure: The effect of orally administered zoledronic acid was examined in the rat tibia fracture model of complex regional pain syndrome (CRPS). CRPS was induced in the rats by fracturing the right distal tibias of the animals and casting the fractured hindpaws for 4 weeks, as described in Guo T Z et al. (Pain. 2004; 108:95-107).
Animals were orally administered either vehicle (control) or zoledronic acid, in a dosage of 18 mg/m^2/day (3 mg/kg/day) for 28 days, starting on the day of fracture and casting. Drug was dissolved in distilled water and administered by gavage. Animals were fasted for 4 hours before and 2 hours after dosing. At the end of the 28-day period, casts were removed, and on the following day, the rats were tested for hindpaw pain, edema, and warmth.
Pain was assessed by measuring hyperalgesia, and weight bearing. […]
An incapacitance device (IITC Inc. Life Science, Woodland, Calif., USA) was used to measure hindpaw weight bearing, a postural effect of pain. […] Eight readings (excluding the highest and lowest ones) were averaged to calculate the bilateral hindpaw weight-bearing values. Weight bearing data were analyzed as the ratio between right (fracture) and left hindpaw weight bearing values ((2R/(R+L))×100%). […]
The temperature of the hindpaw was measured using a fine wire thermocouple (Omega, Stanford, Conn., USA) applied to the paw skin. […]

## O=P(O)(O)C(O)(Cn1ccnc1)P(=O)(O)O [zoledronic acid]
[1]; oral 18 mg/m^2, entire measurement period after 30 minutes from start of treatment
  paw compression thresholds versus vehicle: higher than for vehicle
[1]; oral 120 mg/m^2 (20 mg/kg), all time points
  paw compression thresholds versus vehicle: approximately equal or inferior to vehicle
[1]; oral 900 mg/m^2 (150 mg/kg) daily days 1-3, two days after cessation of dosing
  toxicity: significant toxicity necessitating euthanization of all the animals in this group
[1]; oral 900 mg/m^2, day three
  paw compression thresholds versus vehicle: greater than for vehicle
[1]; two higher doses (120 and 900 mg/m^2), first two days of dosing
  paw compression thresholds versus vehicle: lower than vehicle
[2]
  hindlimb weight bearing on fracture hindlimb: 86 % of normal
